From ChEMBL document CHEMBL1201862, “PubChem BioAssay data set” (2004)
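Briefly, cells in 96-well plates were exposed to five compound concentrations for 48 h, and endpoints were estimated by linear interpolation. Here, GI50 denotes the concentration required for 50% inhibition of growth.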 Active and inactive are the calls of the source. Rule as the data show it: active = GI50 up to about 1.1 µM and inactive = higher.

Tests used:
Assay in all cases: NCI tumour cell line growth inhibition, 48 h
786-0 = tested on: 786-0
A498 = tested on: A498
CCRF-CEM = tested on: CCRF-CEM
EKVX = tested on: EKVX
HCT-15 = tested on: HCT-15
HOP-92 = tested on: HOP-92
HT-29 = tested on: HT-29
IGROV-1 = tested on: IGROV-1
LOX IMVI = tested on: LOX IMVI
MCF7 = tested on: MCF7
NCI-H23 = tested on: NCI-H23
OVCAR-8 = tested on: OVCAR-8
PC-3 = tested on: PC-3
RPMI-8226 = tested on: RPMI-8226
RXF 393 = tested on: RXF 393
SF-268 = tested on: SF-268
SNB-75 = tested on: SNB-75
SR = tested on: SR
T47D = tested on: T47D
TK-10 = tested on: TK-10

| Structure (SMILES) | GI50 (786-0) | GI50 (A498) | GI50 (CCRF-CEM) | GI50 (EKVX) | GI50 (HCT-15) | GI50 (HOP-92) | GI50 (HT-29) | GI50 (IGROV-1) | GI50 (LOX IMVI) | GI50 (MCF7) | GI50 (NCI-H23) | GI50 (OVCAR-8) | GI50 (PC-3) | GI50 (RPMI-8226) | GI50 (RXF 393) | GI50 (SF-268) | GI50 (SNB-75) | GI50 (SR) | GI50 (T47D) | GI50 (TK-10) |
| --- | --- | --- | --- | --- | --- | --- | --- | --- | --- | --- | --- | --- | --- | --- | --- | --- | --- | --- | --- | --- |
| COc1cc2cc(C(=O)N3CC(CCl)c4c3cc([N+](C)(C)Cc3ccc([N+](=O)[O-])n3C)c3ccccc43)[nH]c2c(OC)c1OC (stereo not given) | 1.33 µM (inactive) | 0.153 µM (active) | 1.77 µM (inactive) | 2.72 µM (inactive) | 1.58 µM | 0.619 µM (active) | 1.29 µM (inactive) | 1.58 µM (inactive) | 2.31 µM (inactive) | 1.46 µM (inactive) | 0.472 µM (active) | 1.38 µM (inactive) | 0.184 µM (active) | 0.316 µM (active) | 0.0107 µM (active) | 2.62 µM (inactive) | 2.35 µM (inactive) | < 0.0385 µM (active) | 3.23 µM (inactive) | 2.67 µM (inactive) |
| C=C1CC2(OC1=O)c1ccccc1C=Cc1ccccc12 | 2.86 µM (inactive) | 8.24 µM (inactive) | 0.697 µM (active) | 8.85 µM (inactive) | 3.25 µM | 1.61 µM (inactive) | 2.44 µM (inactive) | 7.26 µM (inactive) | 1.38 µM (inactive) | 2.3 µM (inactive) | 6.32 µM (inactive) | 5.21 µM (inactive) | 5.79 µM (inactive) | 1.42 µM (inactive) | 3.19 µM (inactive) | 7.23 µM (inactive) | 9.18 µM (inactive) | 0.82 µM (active) | 1.93 µM (inactive) | 5.86 µM (inactive) |
| Cc1cc(NC2=CC(=O)C(=O)c3ccccc32)no1 | 15.1 µM (inactive) | 18.7 µM (inactive) | 9.66 µM (inactive) | 16.1 µM (inactive) | 3.62 µM | 16.4 µM (inactive) | 13 µM (inactive) | 8.28 µM (inactive) | 1.84 µM (inactive) | 2.81 µM (inactive) | 1.54 µM (inactive) | 6.81 µM (inactive) | 10.3 µM (inactive) | 6.05 µM (inactive) | 15.1 µM (inactive) | 15.2 µM (inactive) | 9.44 µM (inactive) | 7.16 µM (inactive) | 11.9 µM (inactive) | 26.1 µM (inactive) |
| O=C(NCC(=O)N1CCCC1C(=O)OC(=O)C1CCCN1C(=O)CNC(=O)OCc1ccccc1)OCc1ccccc1 (stereo not given) | 47.6 µM (inactive) | 73.1 µM (inactive) | 35.9 µM (inactive) | 42.8 µM (inactive) | 38.8 µM | 31 µM (inactive) | 24.1 µM (inactive) | 33.8 µM (inactive) | 17.7 µM (inactive) | 21.1 µM (inactive) | 40.9 µM (inactive) | 41.4 µM (inactive) | 35.8 µM (inactive) | 21.7 µM (inactive) | 24 µM (inactive) | 30.4 µM (inactive) | 14.9 µM (inactive) | 44.5 µM (inactive) | 44.9 µM (inactive) | 17.3 µM (inactive) |
| O=C1c2ccccc2CN1c1ccc(OCCN2CCCCC2)cc1 | > 10 µM (inactive) | > 10 µM (inactive) | > 10 µM (inactive) | > 10 µM (inactive) | > 10 µM | > 10 µM (inactive) | > 10 µM (inactive) | > 10 µM (inactive) | > 10 µM (inactive) | > 10 µM (inactive) | > 10 µM (inactive) | > 10 µM (inactive) | > 10 µM (inactive) | > 10 µM (inactive) | > 10 µM (inactive) | > 10 µM (inactive) | > 10 µM (inactive) | > 10 µM (inactive) | > 10 µM (inactive) | > 10 µM (inactive) |
| COc1cc(C2c3cc4c(cc3OC(N3CCCCC3)C2C)OCO4)cc(OC)c1OC (stereo not given) | 3.42 µM (inactive) | 3.38 µM (inactive) | 2.84 µM (inactive) | 10.3 µM (inactive) | 3.65 µM | 10.4 µM (inactive) | 3.04 µM (inactive) | 4.62 µM (inactive) | 4.85 µM (inactive) | 1.44 µM (inactive) | 3.41 µM (inactive) | 5.11 µM (inactive) | 3.5 µM (inactive) | 4.18 µM (inactive) | 2.15 µM (inactive) | 9.02 µM (inactive) | 4.47 µM (inactive) | 3.27 µM (inactive) | 4.23 µM (inactive) | 7.71 µM (inactive) |
| COc1cc2cc(C(=O)N3CC(CCl)c4ccccc43)[nH]c2c(OC)c1OC (stereo not given) | 97.5 µM (inactive) | 18.2 µM (inactive) | > 36.6 µM (inactive) | > 66.1 µM (inactive) | 24.1 µM | > 100 µM (inactive) | 26.8 µM (inactive) | > 100 µM (inactive) | 44.8 µM (inactive) | 32.2 µM (inactive) | > 100 µM (inactive) | 81.8 µM (inactive) | 21.9 µM (inactive) | 10.6 µM (inactive) | > 100 µM (inactive) | > 100 µM (inactive) | > 92.5 µM (inactive) | 18.1 µM (inactive) | 13.8 µM (inactive) | > 100 µM (inactive) |
| Cc1cccc2c1NC(=O)/C2=N\Nc1ccccc1[N+](=O)[O-] | 4.27 µM (inactive) | 19.3 µM (inactive) | 6.3 µM (inactive) | 1.58 µM (inactive) | 15.3 µM | 2.38 µM (inactive) | 4.35 µM (inactive) | 2.37 µM (inactive) | 3.64 µM (inactive) | 4.6 µM (inactive) | 6.67 µM (inactive) | 3.85 µM (inactive) | 10.9 µM (inactive) | 10 µM (inactive) | 3.66 µM (inactive) | 6.04 µM (inactive) | 11.1 µM (inactive) | 2.7 µM (inactive) | 8.83 µM (inactive) | 6.84 µM (inactive) |
| CCCCC(=O)c1c(O)ccc2c(C)cc(=O)oc12 | > 100 µM (inactive) | 97.7 µM (inactive) | 82.2 µM (inactive) | 89.1 µM (inactive) | 50.4 µM | 36.3 µM (inactive) | > 100 µM (inactive) | 95.5 µM (inactive) | 93.8 µM (inactive) | 76.2 µM (inactive) | 99.8 µM (inactive) | > 100 µM (inactive) | > 100 µM (inactive) | 52 µM (inactive) | 49.1 µM (inactive) | > 100 µM (inactive) | > 100 µM (inactive) | 40.7 µM (inactive) | 14.8 µM (inactive) | > 100 µM (inactive) |
| COc1ccccc1/C=C/c1nc2ccccc2o1 | > 10 µM (inactive) | > 10 µM (inactive) | > 10 µM (inactive) | > 10 µM (inactive) | > 10 µM | 6.19 µM (inactive) | > 10 µM (inactive) | > 10 µM (inactive) | > 10 µM (inactive) | > 10 µM (inactive) | > 10 µM (inactive) | > 10 µM (inactive) | > 10 µM (inactive) | > 10 µM (inactive) | > 10 µM (inactive) | > 10 µM (inactive) | > 10 µM (inactive) | > 10 µM (inactive) | > 10 µM (inactive) | > 10 µM (inactive) |
| O=C(O)C(C(=O)O)P(=S)(S)c1ccccc1 (stereo not given) | > 100 µM (inactive) | > 100 µM (inactive) | > 100 µM (inactive) | > 100 µM (inactive) | > 100 µM | > 100 µM (inactive) | > 100 µM (inactive) | > 100 µM (inactive) | > 100 µM (inactive) | > 100 µM (inactive) | > 100 µM (inactive) | > 100 µM (inactive) | > 100 µM (inactive) | > 100 µM (inactive) | > 100 µM (inactive) | > 100 µM (inactive) | > 100 µM (inactive) | > 73.5 µM (inactive) | > 100 µM (inactive) | > 100 µM (inactive) |
| N#C/C(=C\c1ccc2[nH]ccc2c1)C(=O)c1ccc(O)c(O)c1 | 43 µM (inactive) | > 100 µM (inactive) | 24.5 µM (inactive) | 57.9 µM (inactive) | 51.4 µM | 53 µM (inactive) | 69 µM (inactive) | > 88.5 µM (inactive) | 63.7 µM (inactive) | 34.8 µM (inactive) | > 100 µM (inactive) | > 100 µM (inactive) | > 100 µM (inactive) | > 73.5 µM (inactive) | > 94 µM (inactive) | > 64.9 µM (inactive) | > 100 µM (inactive) | 44.2 µM (inactive) | 62.8 µM (inactive) | > 72.1 µM (inactive) |
| COc1ccc(CCNCCCC2c3ccccc3-c3ccccc32)cc1OC | 15 µM (inactive) | 8.02 µM (inactive) | 24.3 µM (inactive) | 16.3 µM (inactive) | 14.8 µM | 5.71 µM (inactive) | 5.06 µM (inactive) | 13.6 µM (inactive) | 14.2 µM (inactive) | 6.7 µM (inactive) | 15 µM (inactive) | 16.6 µM (inactive) | 16.3 µM (inactive) | 6.3 µM (inactive) | 11.3 µM (inactive) | 15.1 µM (inactive) | 13.5 µM (inactive) | 8.22 µM (inactive) | 17.1 µM (inactive) | 14.4 µM (inactive) |
| CC(C)(C)C1(COC(=O)c2ccc(N)cc2)COC1 | 73.3 µM (inactive) | 87.3 µM (inactive) | 46 µM (inactive) | 39.4 µM (inactive) | 63.2 µM | > 100 µM (inactive) | 50.1 µM (inactive) | > 100 µM (inactive) | > 100 µM (inactive) | 45 µM (inactive) | 66.7 µM (inactive) | 58.3 µM (inactive) | 47.2 µM (inactive) | 58.9 µM (inactive) | 72.4 µM (inactive) | > 100 µM (inactive) | 76.6 µM (inactive) | 75.3 µM (inactive) | 24.4 µM (inactive) | > 100 µM (inactive) |
